The target of experiment [1] is T1, GluClα (Caenorhabditis elegans, UniProt G5EBR3).
T1 sequence (G5EBR3 21-461): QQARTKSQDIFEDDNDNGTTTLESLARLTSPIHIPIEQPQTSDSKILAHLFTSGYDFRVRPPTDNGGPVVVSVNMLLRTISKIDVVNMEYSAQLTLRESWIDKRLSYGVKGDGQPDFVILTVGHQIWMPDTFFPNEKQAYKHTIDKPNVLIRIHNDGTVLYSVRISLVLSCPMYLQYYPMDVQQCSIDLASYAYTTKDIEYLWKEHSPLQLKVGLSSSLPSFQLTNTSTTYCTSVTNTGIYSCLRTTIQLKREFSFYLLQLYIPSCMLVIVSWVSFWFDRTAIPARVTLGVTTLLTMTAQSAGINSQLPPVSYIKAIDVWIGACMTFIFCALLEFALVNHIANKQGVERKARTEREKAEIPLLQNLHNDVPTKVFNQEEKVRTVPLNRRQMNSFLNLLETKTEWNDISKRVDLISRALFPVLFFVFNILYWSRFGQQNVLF
The experiment in a line: Glutamate current after IVMPO4 current activation, GluClα injected oocytes. Also noted: the full-length open reading frame of the GluCl cDNA encoding the GluClα (52,550 kDa) and GluClβ (49,900kDa) subunits; expressed in transfected cells; host or cells: Xenopus laevis oocytes injected with in vitro RNA. In kind it is cell-based, C. elegans. Here is the method:
(§1) Xenopus laevis oocytes were prepared and injected using standard methods previously described and known in the art [Arena, J. P., Liu. K. K., Paress, P. S. & Cully. D. F. Mol. Pharmacol. 40, 368-374 (1991 ); Arena, J. P., Liu, K. K., Paress, P. S., Schaeffer, J. M. & Cully, D. F. Mol. Brain Res. 15, 339-348 (1992)]. Adult female Xenopus laevis were anesthetized with 0.17% tricaine methanesulfonate and the ovaries were surgically removed and placed in a dish consisting of (mM): NaCl 1 82.5, KCl 2. MgCl2 1, CaCl2 1.8, HEPES 5 adjusted to pH 7.5 with NaOH (OR-2). Ovarian lobes were broken open, rinsed several times, and gently shaken in OR-2 containing 0.2% collagenase (Sigma, Type 1A) for 2-5 hours. […]
(§2) Recordings were made at room temperature 2-10 days after injection. […] Data were acquired and analyzed using PCLAMP with a TL-1 interface (Axon Instruments, Foster City, Calif.). Membrane current at a holding potential of -80 mV was recorded. The amplitude of drug-sensitive current was determined by subtracting the holding current at -80 mV from the peak current obtained in the presence of drug. […] Current/voltage relationships (I/V) and reversal potentials (Erev) were determined using a 1-3 sec voltage ramp over the voltage range of -110 to +80 mV. […]

The target in experiment [2] is T2, GluClβ (Caenorhabditis elegans, UniProt Q17328).
T2 construct: the full-length open reading frame of the GluCl cDNA encoding the GluClα (52,550 kDa) and GluClβ (49,900kDa) subunits; expressed in transfected cells; host or cells: Xenopus laevis oocytes injected with in vitro RNA
T2 sequence (Q17328 23-434): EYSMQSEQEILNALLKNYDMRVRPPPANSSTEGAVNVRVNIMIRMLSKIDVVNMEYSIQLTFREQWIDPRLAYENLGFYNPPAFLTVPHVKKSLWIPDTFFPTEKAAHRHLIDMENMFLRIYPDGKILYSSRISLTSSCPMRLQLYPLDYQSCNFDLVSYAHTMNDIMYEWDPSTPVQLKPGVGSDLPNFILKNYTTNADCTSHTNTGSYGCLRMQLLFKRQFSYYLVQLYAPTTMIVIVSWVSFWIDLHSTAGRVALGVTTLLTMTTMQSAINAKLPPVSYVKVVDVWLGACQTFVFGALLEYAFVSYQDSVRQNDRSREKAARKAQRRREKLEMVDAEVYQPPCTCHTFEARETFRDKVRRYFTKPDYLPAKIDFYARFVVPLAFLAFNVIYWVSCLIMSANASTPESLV
The experiment in a line: Modulation of glutamate-sensitive current by IVMPO4, GluClβ injected oocytes. Format: cell-based, C. elegans. Here is the method: as §1, §2

As to `N[C@@H](CCC(=O)O)C(=O)O` [glutamate], the “lowest glutamate concentrations at which glutamate-sensitive current could be observed” value in experiment [1] (following IVMPO4 current activation) was determined as 10 µM. Also, in experiment [1] (prior activation of current with IVMPO4), the “increase in current with glutamate” value came out at 20±4%.

For ivermectin-4-O-phosphate [IVMPO4], the “reduction of glutamate-sensitive current” value in experiment [2] (following IVMPO4 1 μM) is 88±4%. In experiment [2] (homomeric GluClβ channels), the “potentiation of glutamate response” value is given as “not potentiated”.

For the origin of these results see patent US5527703A (Merck & Co., Inc., priority 1994, dated 1996).
